test system: CAL-85-1; assay: normalised response (% of control), CellTox Green; higher = less cell death (100 = DMSO, 0 = benzethonium chloride kill control); settings: incubation time: 72 h
In short: (§1)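 Every value is a normalised signal taken at one concentration of a dilution series. Compound was placed in 384-well plates at 5 concentrations in 10-fold steps over a compound-specific 10,000-fold range, and 20 µl of breast cancer cell suspension was seeded onto it. After 72 h, CellTox Green fluorescence (485/520 nm) was measured first and CellTiter-Glo luminescence second, following 10 min at room temperature. Each plate was scaled to 0.1 % DMSO (100) and a positive kill control (0).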

First: CCCCC(=O)OCC(=O)[C@]1(O)Cc2c(O)c3c(c(O)c2[C@@H](O[C@H]2C[C@H](NC(=O)C(F)(F)F)[C@H](O)[C@H](C)O2)C1)C(=O)c1c(OC)cccc1C3=O [Valrubicin] (5000 nM)
Second: C=CC(=O)Nc1cc2c(Nc3ccc(F)c(Cl)c3)ncnc2cc1OCCCN1CCOCC1 [Canertinib] (10000 nM)
The normalised response of the first is higher: 170% for the first, -11% for the second.

Compared with Cc1ccc(-c2cc(C(F)(F)F)nn2-c2ccc(S(N)(=O)=O)cc2)cc1 [Celecoxib] (10000 nM), C=CC(=O)N1CCC[C@@H](n2nc(-c3ccc(Oc4ccccc4)cc3)c3c(N)ncnc32)C1 [Ibrutinib] (1000 nM) is lower in normalised response: 104% for the first, 26.8% for the second.

Compared with Oc1ncc(N(CCCl)CCCl)c(O)n1 [Uracil mustard] (10000 nM), C=CCc1cccc(/C=N/NC(=O)CN2CCN(Cc3ccccc3)CC2)c1O [PAC-1] (10000 nM) is lower in normalised response: 95.4% for the first, 63.3% for the second.

First: COc1cc2c(NC3CCN(C(C)C)CC3)nc(C3CCCCC3)nc2cc1OCCCN1CCCC1 [UNC0638] (10000 nM)
Second: CCc1cncnc1N1CCN(Cc2nc3ccc(C(F)(F)F)cc3[nH]2)CC1 (10000 nM)
The normalised response of the first is lower: -10.2% for the first, 67.3% for the second.

For O=C(O)CCCCC(CCSCc1ccccc1)SCc1ccccc1 (configuration not stated) [CPI-613] (10000 nM), the normalised response was 88.7%.

test system: HCC1599; assay: as above; settings: incubation time: 72 h
In short: as §1

Going from CCCCC(=O)OCC(=O)[C@]1(O)Cc2c(O)c3c(c(O)c2[C@@H](O[C@H]2C[C@H](NC(=O)C(F)(F)F)[C@H](O)[C@H](C)O2)C1)C(=O)c1c(OC)cccc1C3=O [Valrubicin] (5000 nM) to C=CC(=O)Nc1cc2c(Nc3ccc(F)c(Cl)c3)ncnc2cc1OCCCN1CCOCC1 [Canertinib] (10000 nM), the normalised response falls from 196% to 111%.

First: Cc1ccc(-c2cc(C(F)(F)F)nn2-c2ccc(S(N)(=O)=O)cc2)cc1 [Celecoxib] (10000 nM)
Second: C=CC(=O)N1CCC[C@@H](n2nc(-c3ccc(Oc4ccccc4)cc3)c3c(N)ncnc32)C1 [Ibrutinib] (1000 nM)
The normalised response of the first is lower: 103% for the first, 106% for the second.

Going from Oc1ncc(N(CCCl)CCCl)c(O)n1 [Uracil mustard] (10000 nM) to C=CCc1cccc(/C=N/NC(=O)CN2CCN(Cc3ccccc3)CC2)c1O [PAC-1] (10000 nM), the normalised response falls from 99.1% to 91%.

Compared with COc1cc2c(NC3CCN(C(C)C)CC3)nc(C3CCCCC3)nc2cc1OCCCN1CCCC1 [UNC0638] (10000 nM), CCc1cncnc1N1CCN(Cc2nc3ccc(C(F)(F)F)cc3[nH]2)CC1 (10000 nM) is higher in normalised response: 62.2% for the first, 99.2% for the second.

O=C(O)CCCCC(CCSCc1ccccc1)SCc1ccccc1 (configuration not stated) [CPI-613] (10000 nM) was tested, and the normalised response was 102%.

test system: HCC1143; assay: as above; settings: incubation time: 72 h
In short: as §1

Compared with CCCCC(=O)OCC(=O)[C@]1(O)Cc2c(O)c3c(c(O)c2[C@@H](O[C@H]2C[C@H](NC(=O)C(F)(F)F)[C@H](O)[C@H](C)O2)C1)C(=O)c1c(OC)cccc1C3=O [Valrubicin] (5000 nM), C=CC(=O)Nc1cc2c(Nc3ccc(F)c(Cl)c3)ncnc2cc1OCCCN1CCOCC1 [Canertinib] (10000 nM) is lower in normalised response: 176% for the first, 84.5% for the second.

Compared with Cc1ccc(-c2cc(C(F)(F)F)nn2-c2ccc(S(N)(=O)=O)cc2)cc1 [Celecoxib] (10000 nM), C=CC(=O)N1CCC[C@@H](n2nc(-c3ccc(Oc4ccccc4)cc3)c3c(N)ncnc32)C1 [Ibrutinib] (1000 nM) is higher in normalised response: 68.4% for the first, 111% for the second.

Going from Oc1ncc(N(CCCl)CCCl)c(O)n1 [Uracil mustard] (10000 nM) to C=CCc1cccc(/C=N/NC(=O)CN2CCN(Cc3ccccc3)CC2)c1O [PAC-1] (10000 nM), the normalised response falls from 115% to 101%.

Going from COc1cc2c(NC3CCN(C(C)C)CC3)nc(C3CCCCC3)nc2cc1OCCCN1CCCC1 [UNC0638] (10000 nM) to CCc1cncnc1N1CCN(Cc2nc3ccc(C(F)(F)F)cc3[nH]2)CC1 (10000 nM), the normalised response rises from 94.9% to 117%.

In the case of O=C(O)CCCCC(CCSCc1ccccc1)SCc1ccccc1 (configuration not stated) [CPI-613] (10000 nM), the normalised response is reported as 92.7%.

test system: HCC1937; assay: as above; settings: incubation time: 72 h
In short: as §1

Compared with CCCCC(=O)OCC(=O)[C@]1(O)Cc2c(O)c3c(c(O)c2[C@@H](O[C@H]2C[C@H](NC(=O)C(F)(F)F)[C@H](O)[C@H](C)O2)C1)C(=O)c1c(OC)cccc1C3=O [Valrubicin] (5000 nM), C=CC(=O)Nc1cc2c(Nc3ccc(F)c(Cl)c3)ncnc2cc1OCCCN1CCOCC1 [Canertinib] (10000 nM) is lower in normalised response: 183% for the first, 80.3% for the second.

Compared with Cc1ccc(-c2cc(C(F)(F)F)nn2-c2ccc(S(N)(=O)=O)cc2)cc1 [Celecoxib] (10000 nM), C=CC(=O)N1CCC[C@@H](n2nc(-c3ccc(Oc4ccccc4)cc3)c3c(N)ncnc32)C1 [Ibrutinib] (1000 nM) is lower in normalised response: 116% for the first, 94.5% for the second.

Going from Oc1ncc(N(CCCl)CCCl)c(O)n1 [Uracil mustard] (10000 nM) to C=CCc1cccc(/C=N/NC(=O)CN2CCN(Cc3ccccc3)CC2)c1O [PAC-1] (10000 nM), the normalised response falls from 98.4% to 96%.

Compared with COc1cc2c(NC3CCN(C(C)C)CC3)nc(C3CCCCC3)nc2cc1OCCCN1CCCC1 [UNC0638] (10000 nM), CCc1cncnc1N1CCN(Cc2nc3ccc(C(F)(F)F)cc3[nH]2)CC1 (10000 nM) is higher in normalised response: -27% for the first, 90.2% for the second.

With O=C(O)CCCCC(CCSCc1ccccc1)SCc1ccccc1 (configuration not stated) [CPI-613] (10000 nM) the normalised response was 80.9%.

test system: MDA-MB-453; assay: as above; settings: incubation time: 72 h
In short: as §1

Compared with CCCCC(=O)OCC(=O)[C@]1(O)Cc2c(O)c3c(c(O)c2[C@@H](O[C@H]2C[C@H](NC(=O)C(F)(F)F)[C@H](O)[C@H](C)O2)C1)C(=O)c1c(OC)cccc1C3=O [Valrubicin] (5000 nM), C=CC(=O)Nc1cc2c(Nc3ccc(F)c(Cl)c3)ncnc2cc1OCCCN1CCOCC1 [Canertinib] (10000 nM) is lower in normalised response: 150% for the first, 87.6% for the second.

Compared with Cc1ccc(-c2cc(C(F)(F)F)nn2-c2ccc(S(N)(=O)=O)cc2)cc1 [Celecoxib] (10000 nM), C=CCc1cccc(/C=N/NC(=O)CN2CCN(Cc3ccccc3)CC2)c1O [PAC-1] (10000 nM) is lower in normalised response: 99% for the first, 93.7% for the second.

Compared with Oc1ncc(N(CCCl)CCCl)c(O)n1 [Uracil mustard] (10000 nM), COc1cc2c(NC3CCN(C(C)C)CC3)nc(C3CCCCC3)nc2cc1OCCCN1CCCC1 [UNC0638] (10000 nM) is lower in normalised response: 98% for the first, -11.5% for the second.

Reference: the supplement of paper PMC4862054
